The test system of assay [1] is S. aureus ATCC 25923 biofilms. Nature of the assay: Anti-biofilm viability assay with redox dye, pre- and post-exposure, S. aureus ATCC 25923 biofilms. As to conditions: for inhibition at 400 µM / IC50: Staphylococcus aureus; for inhibition at 400 µM: ATCC25923. The class given is cell-based, Staphylococcus aureus.
Assay [2] concerns single-cell bacteria. Nature of the assay: Antibacterial activity (MIC) against single-cell (planktonic) bacteria. Format: cell-based. The settings on record: Staphylococcus aureus, in the absence of biofilms, strain not stated. An excerpt:
We selected six of the active compounds in the post-exposure assays namely, compounds 20, 21, 22, 25, 31 and 32 for the follow-up studies. […] In this mode of the assay, the interaction of the compounds occurs initially with single-cell bacteria (that is, a planktonic solution) before biofilms are formed. Therefore, we tested additionally if the compounds could exert antibacterial activity against single-cell bacteria, in the absence of biofilms. Based solely on conventional MIC and MBC values, antibacterial activities against single-cell bacteria were also high for the derivatives. […] The antibacterial activity order 22>21>25>31>20>32 correlated very well with the measured activity in preventing biofilm formation.

Assay [3] concerns S. aureus Newman. Nature of the assay: Anti-biofilm potency against S. aureus Newman biofilms. The settings on record: Staphylococcus aureus. Format: cell-based, Staphylococcus aureus. The text has this: In fact, only 2-3 fold-higher concentrations of the compounds were needed to kill existing biofilms, in comparison to inhibiting bacterial colonization. […] Anti-biofilm potencies were all in the micromolar range and they were particularly significant for compound 22. […] The activity was also confirmed against S. aureus Newman strain. Potency values calculated for the S. aureus Newman (Table 3) were very similar to the values registered for S. aureus ATCC 25923.

Where [4] appears, read: post-exposure, S. aureus ATCC 25923, read-out: % Inhibition 400 μM POST.
Setting [5] is: pre-exposure, S. aureus ATCC 25923, read-out: % Inhibition 400 μM PRE.
Where [6] appears, read: S. aureus Newman, read-out: Potency, IC50 Post-biofilm formation.
Setting [7] is: S. aureus Newman, read-out: Potency, IC50 Prior-to-biofilm formation.
[8] abbreviates: S. aureus Newman, value in parentheses, read-out: Potency, IC50 Post-biofilm formation.
[9] abbreviates: S. aureus Newman, value in parentheses, read-out: Potency, IC50 Prior-to-biofilm formation.
The mark [10] stands for this setting: ATCC25923, 50% inhibition of biofilm viability, S. aureus ATCC 25923, read-out: Potency, IC50 Prior-to-biofilm formation.
The mark [11] stands for this setting: ATCC25923, 50% inhibition of biofilm viability, S. aureus ATCC 25923, value in parentheses, read-out: Potency, IC50 Prior-to-biofilm formation.
The mark [12] stands for this setting: ATCC25923, 24 h, measured 24 hours after adding to existing biofilms, S. aureus ATCC 25923, read-out: Potency, IC50 Post-biofilm formation.
Setting [13] is: ATCC25923, 24 h, measured 24 hours after adding to existing biofilms, S. aureus ATCC 25923, value in parentheses, read-out: Potency, IC50 Post-biofilm formation.

The text below walks through data of patent US20170247409A1, “ABIETANE-TYPE DITERPENOIDS” (UNIVERSITY OF HELSINKI, priority 2014, published 2017).

≈ marks a conversion by molar mass, not a printed value. Where “and” joins values, the source holds several entries; their conditions need not be identical. Identical values can stand only once. Like-named read-outs stand apart in the source and are kept apart here.

As to `CC(C)c1ccc2c(c1)CC[C@H]1[C@](C)(C(=O)N[C@H](Cc3ccc(O)cc3)C(=O)O)CCC[C@]21C` [Compound 24, N-(Abiet-8,11,13-trien-18-oyl) D-tyrosine], the inhibition at 400 µM in assay [1] (setting [4]) turned out to be 26.3%; in assay [1] (setting [5]), 102%.
On the same counts, the results for `CSCC[C@@H](NC(=O)[C@]1(C)CCC[C@]2(C)c3ccc(C(C)C)cc3CC[C@@H]12)C(=O)O` [Compound 23, N-(Abiet-8,11,13-trien-18-oyl) D-methionine] are 92.6% and 102%.
On the same counts, the results for `CC(C)c1ccc2c(c1)CC[C@H]1[C@](C)(C(=O)N[C@H](C(=O)O)C(C)C)CCC[C@]21C` [Compound 18, N-(Abiet-8,11,13-trien-18-oyl) L-valine] are 99.2% and 100%.
On the same counts, the results for `CC[C@H](NC(=O)[C@]1(C)CCC[C@]2(C)c3ccc(C(C)C)cc3CC[C@@H]12)C(=O)O` [Compound 19, N-(abiet-8,11,13-trien-18-oyl) Ethyl-L-glycine] are 98.9% and 99.8%.
For the molecule `CC(C)c1ccc2c(c1)C(=O)C[C@H]1[C@](C)(C(=O)N[C@@H](CC3CCCCC3)C(=O)O)CCC[C@]21C` [Compound 32, N-(7-Oxoabiet-8,11,13-trien-18-oyl) Cyclohexyl-L-alanine], the MIC in assay [2] came to 46.8 µg/mL (≈ 100 µM). In addition, the IC50 in assay [3] (setting [6]) was determined as 93.1 µM; in assay [3] (setting [7]), 63.5 µM; in assay [3] (setting [8]), 43.5 µg/mL; in assay [3] (setting [9]), 29.7 µg/mL; in assay [1] (setting [10]) it was 60.6 µM; in assay [1] (setting [11]), 28.3 µg/mL. The IC50 in assay [1] (setting [12]) stood at 145 µM; in assay [1] (setting [13]), 67.9 µg/mL. For the same molecule, the inhibition at 400 µM in assay [1] (setting [4]) and in assay [1] (setting [5]) was 102% in each case.
For `CN[C@H](CC(C)C)C(=O)N[C@H]1C(=O)N[C@@H](CC(N)=O)C(=O)N[C@H]2C(=O)N[C@H]3C(=O)N[C@H](C(=O)N[C@H](C(=O)O)c4cc(O)cc(O)c4-c4cc3ccc4O)[C@H](O)c3ccc(c(Cl)c3)Oc3cc2cc(c3O[C@@H]2O[C@H](CO)[C@@H](O)[C@H](O)[C@H]2O[C@H]2C[C@](C)(N)[C@H](O)[C@H](C)O2)Oc2ccc(cc2Cl)[C@H]1O` [Vancomycin, reference compound], the inhibition at 400 µM in assay [3] (NEWMAN, read-out: % inhibition, Post-biofilm formation) was 37.9%. Besides, the IC50 in assay [3] (NEWMAN, read-out: Potency, IC50 Prior-to-biofilm formation) is 1.3 µM and 1.88 µg/mL; in assay [1] (ATCC25923, read-out: Potency, IC50 Prior-to-biofilm formation), 710 nM and 1.03 µg/mL. Moreover, the “% inhibition, Post-biofilm formation” value in assay [1] (at 400 μM, existing biofilms, S. aureus ATCC 25923) is 25% inhibition at 400 μM.
In assay [2], `CC(C)c1ccc2c(c1)CC[C@H]1[C@](C)(C(=O)N[C@H](Cc3ccccc3)C(=O)O)CCC[C@]21C` [Compound 31, N-(Abiet-8,11,13-trien-18-oyl) D-phenylalanine] showed an MIC of 31.3 µg/mL (≈ 69.9 µM). Moreover, the IC50 in assay [3] (setting [6]) was 110 µM; in assay [3] (setting [7]) it was 36.2 µM; in assay [3] (setting [8]) it was 49.4 µg/mL; in assay [3] (setting [9]), 16.2 µg/mL; in assay [1] (setting [10]) it was 37.4 µM; in assay [1] (setting [11]), 16.7 µg/mL. Besides, the half-inhibitory concentration (IC50) in assay [1] (setting [12]) was 98.2 µM; in assay [1] (setting [13]), 44 µg/mL. For the same molecule, the inhibition at 400 µM in assay [1] (setting [4]) and in assay [1] (setting [5]) was 102% in each case.
